Reference: ChEMBL document CHEMBL2380299, “Sungsanpin, a lasso peptide from a deep-sea streptomycete” (J Nat Prod, 2013)
Active and inactive are the calls of the source. The calls are words filed in the database; no cut-off is given here. Where a SMILES comes first, the peptide text is derived from it. Bridges are numbered along the chain shown (N, C = ends).

Experiments:
A549 [1] = assay: Antiinvasive activity against human A549 cells assessed as MMP-9 mRNA level after 24 hrs by RT-PCR analysis; format: functional, cell-based
A549 [2] = assay: Antiinvasive activity against human A549 cells assessed as MMP-2 mRNA level after 24 hrs by RT-PCR analysis; format: functional, cell-based
A549 [3] = assay: Antiinvasive activity against human A549 cells assessed as increase in TIMP-2 mRNA level after 24 hrs by RT-PCR analysis; format: functional, cell-based
A549 [4] = assay: Antiinvasive activity against human A549 cells assessed as increase in TIMP-1 mRNA level after 24 hrs by RT-PCR analysis; format: functional, cell-based
A549 [5] = assay: Antiinvasive activity against human A549 cells at 50 uM after 24 hrs by micro plate reader analysis relative to control; format: functional
A549 [6] = assay: Antiinvasive activity against human A549 cells at 5 uM after 24 hrs by micro plate reader analysis relative to control; format: functional
A549 [7] = assay: Cytotoxicity against human A549 cells up to 50 uM after 24 hrs by CCK-8 assay; format: cell-based; details: a549, 24 h

CC[C@H](C)[C@@H]1NC(=O)[C@@H]2CCCN2C(=O)[C@H](CCCCN)NC(=O)[C@H](CO)NC(=O)CNC(=O)[C@H](Cc2ccccc2)NC(=O)CNC(=O)C[C@@H](C(=O)N[C@@H](CO)C(=O)N[C@@H](Cc2ccccc2)C(=O)NCC(=O)N[C@@H](CC(C)C)C(=O)N[C@@H](CO)C(=O)N[C@@H](Cc2c[nH]c3ccccc23)C(=O)N[C@@H](CC(C)C)C(=O)O)NC1=O [SUNGSANPIN] (GFGSKPIDSFGLSWL-OH; lactam N-8)
Activity (A549 [1]): inactive
Activity (A549 [2]): inactive
Activity (A549 [3]): Dose-dependent effect
Activity (A549 [4]): Dose-dependent effect
Activity (A549 [5]): 47%
Activity (A549 [6]): 25%
Activity (A549 [7]): Non-toxic
